Laboratory results taken from patent publication US20250387415A1, “COMPOSITIONS OF COPPER COMPLEXES” (University of Lancashire, priority 2022, published 2025).

How the values were obtained:
[1] = background; cited from earlier work
[2] = background; cited from earlier work; remark: listed apart in the source
[3] = Hydrated lipid systems (F02): transparency check method for maximum solubility / encapsulation; assay type: physicochemical
[4] = Solubility limit in cubosomes solution (F03 nanostructured dispersions), sedimentation; assay type: physicochemical
[5] = background; cited from earlier work; remark: listed apart in the source
[6] = Centrifugation (200 rpm for 5 min) of F01 encapsulation mixtures; assay type: physicochemical; details: encapsulated mixture in MO or DU, visibly homogeneous at room temperature before
Procedure: It was in fact possible to add up to 126 mg of CuASP in 1 g of MO (as per F01-CuASP-MO-E) and up to about 130 mg in 1 g of DU (as per F01-CuASP-DU-E) (FIG. 4). […] With mere mixing by spatula the formulation was again homogeneous thereby encapsulating excess CuASP in the lipid phase.
With mere mixing by spatula the formulation was again homogeneous thereby encapsulating excess CuSL in the lipid phase.

[7] = Maximum copper complex content (solubility / encapsulation) of lipid formulations; assay type: physicochemical

amount encapsulated in DU cubic phase ([3]; in 1.25 g cubic phase): 400 mg
amount encapsulated in DU cubic phase per g of lipid ([3]; viscous cubic phase in presence of water): About 533 mg per g of lipid
solubility limit in cubosomes solution per g of lipid ([4]; 10 g cubosomes (0.5 g lipid + 9.5 g of 0.5% F127 solution)): 50 mg/g of lipid
content that was sedimented in cubosomes solution ([4]; in 10 g cubosomes (0.5 g lipid + 9.5 g of 0.5% F127 solution in water)): 26 mg
sedimentation after centrifugation [6]: some part of the powder sedimented
solubility in lipids ([7]; non-aqueous lipids (MO, DU), F01): 1 mg/g
amount possible to add (encapsulation) in 1 g of DU ([7]; non-aqueous, in 1 g of DU (F01-...-DU-E)): up to 130 mg
amount possible to add (encapsulation) in 1 g of MO ([7]; non-aqueous, in 1 g of MO (F01-...-MO-E)): up to 126 mg
Compound: CC(=O)Oc1ccccc1C(=O)[O-].CC(=O)Oc1ccccc1C(=O)[O-].CC(=O)Oc1ccccc1C(=O)[O-].CC(=O)Oc1ccccc1C(=O)[O-].[Cu+2].[Cu+2] [CuASP, Copper (II) Aspirinate]
solubility in water [1]: poorly soluble in water
irritancy to digestive track compared to aspirin [2]: less irritant
potency as an anti-inflammatory agent compared to aspirin [5]: more potent
